Measured values from ChEMBL document CHEMBL5096239, “Two Binding Sites of SARS-CoV-2 Macrodomain 3 Probed by Oxaprozin and Meclomen” (J Med Chem, 2022).
pKd, pKi: −log10 of the molar value. Activity calls are given as the source filed them. The calls are words filed in the database; no cut-off is given here.

Columns and labels:
[1] = target: T1, Replicase polyprotein 1ab (Severe acute respiratory syndrome coronavirus 2, UniProt P0DTD1); assay: Binding affinity to 15N-labelled His6-tagged SARS-CoV-2 Mac3 (551 to 675 residues) expressed in Escherichia coli Rosetta assessed as chemical shift perturbations by NMR HSQC spectral analysis
[2] = target: Replicase polyprotein 1ab (Severe acute respiratory syndrome coronavirus 2) (UniProt P0DTD1); assay: Binding affinity to 15N-labelled His6-tagged SARS-CoV-2 Mac3 (551 to 675 residues) expressed in Escherichia coli Rosetta assessed as chemical shift perturbations at binding site I (M630, Y634, V635, T636, and S660 residues) at ligand to protein molar ratio of 4:1 by NMR HSQC spectral analysis
[3] = target: Replicase polyprotein 1a (Severe acute respiratory syndrome-related coronavirus, UniProt P0C6U8); assay: Binding affinity to 15N-labelled His6-tagged SARS-CoV Mac3 (527 to 652 residue) expressed in Escherichia coli Rosetta assessed as chemical shift perturbations by NMR HSQC spectral analysis
[4] = target: Replicase polyprotein 1a (Severe acute respiratory syndrome-related coronavirus) (UniProt P0C6U8); assay: Binding affinity to 15N-labelled His6-tagged SARS-CoV Mac3 (527 to 652 residue) expressed in Escherichia coli Rosetta assessed as chemical shift perturbations at binding site 1 (1556, T559, M606, T612, S636, and S637 residues) by NMR HSQC spectral analysis
[5] = target: T1, Replicase polyprotein 1ab; assay: Displacement of carboxyfluorescein-labelled p53-(dG)14 from SARS-CoV-2 Mac3 by fluorescence polarization analysis
[6] = target: T1, Replicase polyprotein 1ab; assay: Displacement of carboxyfluorescein-labelled bbc3-(dG)14 from SARS-CoV-2 Mac3 by fluorescence polarization analysis
[7] = target: Replicase polyprotein 1ab (Severe acute respiratory syndrome coronavirus 2) (UniProt P0DTD1); assay: Binding affinity to 15N-labelled His6-tagged SARS-CoV-2 Mac3 (551 to 675 residues) expressed in Escherichia coli Rosetta assessed as chemical shift perturbations at binding site II (Q594, E595, S609, and M630 residues) at ligand to protein molar ratio of 4:1 by NMR HSQC spectral analysis
[8] = target: Replicase polyprotein 1a (Severe acute respiratory syndrome-related coronavirus) (UniProt P0C6U8); assay: Binding affinity to 15N-labelled His6-tagged SARS-CoV Mac3 (527 to 652 residue) expressed in Escherichia coli Rosetta assessed as chemical shift perturbations at binding site 1 (C550, V553, 1556, and M606 residues) by NMR HSQC spectral analysis

For Cc1ccc(Cl)c(Nc2ccccc2C(=O)O)c1Cl [MECLOFENAMIC ACID], the pKd [1] was 3.05, the Activity [2] was “Active” and the pKd [3] was 3.66. The Activity [4] was “Active”, the pKi [5] was 3.70 and the pKi [6] was 4.30.
O=C(O)CCc1nc(-c2ccccc2)c(-c2ccccc2)o1 [OXAPROZIN] was tested, and the pKd [1] was 2.92, the Activity [7] was “Active” and the pKd [3] was 3.00. The Activity [8] was “Active”, the pKi [5] was 3.05 and the pKi [6] was 3.40.
